Patent US20030165486A1, “Compositions and methods for the induction of retinal detachments” (priority 1999, published 2003)
Read-outs that look alike come from different tables or passages of the source.

Columns and labels:
[1] = system: retina of rabbit eyes; format: in vivo; conditions: for Electro Retinography Results / Histological and Electron Microscopic Results / Retinal Detachment at 48 hours Post 2nd Injection / Retinal Reattachment at 3 weeks Post 2nd Injection: 50 μl of 75 I.U. hyaluronidase intravitreally, 3 days later 50 μl sterile PEG, n = 6; for Retinal Detachment at 48 hours Post 2nd Injection / Retinal Reattachment at 3 weeks Post 2nd Injection: fundus photos, β scans; for safety by indirect ophthalmoscopy, fundus photography, light and electron microscopy and electroretinography: intravitreal hyaluronidase followed by intravitreal PEG
Procedure: In this study, 12-pigmented rabbits were divided into 2 groups of 6 animals each. Group I consisted of six animals that were injected OD with PEG 300. […] As a control, these same animals received saline injections OS and thus served as a control group (Group Ia).
Group II consisted of six animals that were injected that were injected OD with PEG 400. […] As a control, these same animals received saline injections OS and thus served as a control group (Group IIa).
During this procedure a number of ophthalmic methodologies were utilized to monitor the effects and progress of the various experimental treatments. For example, indirect ophthalmoscopy was utilized by a retinal specialist to determine the effects of administering a retinal detaching dose of the compounds disclosed. […] Light microscopy and electron microscopy of eye samples was used to determine the effect of the treatments from a histological perspective. Ultrasonography techniques were used to objectively determine the presence of retinal detachment. Additionally, electroretinography was performed to determine changes due to treatment.

[2] = system: retina of rabbit eyes; experiment: Induction of reversible retinal detachment in rabbits using varying concentration of PEG 300 (Example 5); format: in vivo
Procedure: In this study, 8-pigmented rabbits were divided into 4 groups of 2 animals each. Group I consisted of 2 animals treated with 100% PEG 300. As performed in Example 1, these animals were first injected intravitreally (OD) with 50 μl of 75 I.U. of Hyaluronidase solution (Group I). Fourteen days after the first injection these animals received 50 μl of 100% sterile PEG 300 intravitreally. The OS eye was used as the untreated control as described in Example 1 (Group Ia). A second group of two animals, Group II, was first injected intravitreally (OD) with 50 μl of 75 I.U. of Hyaluronidase solution and then injected 14 days later with 50 μl of sterile 75% solution of PEG 300 intravitreally. The OS eyes of these animals were used as the untreated controls (Group IIa). […] were treated according to the same protocols as described for Groups I, Ia, II, and IIa with the exception that Group III received 50 μl of 50% sterile solution of PEG 300 intravitreally. Similarly, Groups IV and IVa were treated according to the same protocols as described above, however, Group IV received 50 μl of 25% sterile solution of PEG 300 intravitreally.
All retinal detachments and retinal re-attachments were documented using Fundus Photography and Ultrasonography (β-Scan). In addition, 3 rabbit eyes were enucleated and the eyes were prepared for light microscopy as well as for Electron Microscopy.

[3] = system: detached retinas of cats; experiment: Protection of surgically detached retina from degeneration in adult cats (Example 6); format: in vivo, adult cats (Felis domesticus); conditions: 100 μl of Table 5 formulation 6 hours after detachment, 3 days
Procedure: The study is performed on 15 adult cats (Felis domesticus) and modeled generally on the study of Mervin, et al., “Limiting Photoreceptor Death and Deconstruction During Experimental Retinal Detachment: The Value of Oxygen Supplementation,” Am. J. Ophthal. 128:155-164 (1999). Unlike the Mervin study however, the present experiment examines the effect of hyaluronidase administration to prevent photoreceptor death rather than the effect of supplemental oxygen administration.
Three groups of five adult domestic cats (Experimental Group I, Experimental Group II, and Control Group I) are anesthetized using 10 mg/kg of xylazine (Boehringer Ingelheim Vetmedica, Inc., St. Joseph, Mo.) and 50 mg/kg of ketamine (Sigma, St. Louis, Mo.). The surgical method of Anderson, et al., (Invest. Ophthalmol. Vis. Sci. 27:168-183 (1986)) is used to induce retinal detachment in two experimental groups of 5 cats each, however, the lens and vitreous of these cats are left in place during the surgical procedure.
During the procedure, a glass micropipette is introduced through a 20-gauge hole in the sclera at the region of the pars plana. A balanced salt solution (BSS) containing 0.25% sodium hyaluronate is then infused between the neural retina and retinal pigment epithelium. A single detachment is produced in the right eye of each of the 10 cats.
The experimental groups are allowed to recover for six hours. […]

[4] = system: eyes of rabbits
Procedure: Fifty-two (52) healthy rabbits of the New Zealand Cross variety (26 male, 26 female) weighing 1.5 kg to 2.5 kg were individually marked for identification and were housed individually in suspended cages. The animals received a commercially available pelleted rabbit feed on a daily basis, with tap water available ad libitum.
Two animals in each group (1 male, 1 female) were selected for pretreatment fundus photography and fluorescein angiography.
The fundus photography was performed by restraining the animals and visualizing the optic nerve, retinal arcades and fundus with a KOWA® RC-3 Fundus Camera loaded with Kodak Gold 200 ASA film.
The fluorescein angiography involved a 1.5-ml injection of 2% sterile fluorescein solution via the marginal ear vein. Approximately 30 seconds post-injection the fluorescein was visualized upon localization of the optic nerve, retinal vessels and fundus.
The following day, each animal was anesthetized by intravenous administration of a combination of 34 mg/kg of ketamine hydrochloride and 5-mg/kg xylazine. The eyelids were retracted using a lid speculum, and the eyes were disinfected with an iodine-povidone wash.
The experimental treatments administered to each animal group were as follows:
The day following the injections (Day 1) the 26 animals, which were subjected to the fundus photography and fluorescein angiography, were observed using the same methods as for the pre-dose examination.
Alternatively, one randomly selected rabbit was euthanized by pentobarbital injection but then fixed by intracardiac injection of the gluteraldehyde solution into the left ventricle to determine the effect of the fixation procedure on the histology findings within the enucleated eyes.
On Day 7, the 13 female rabbits that had been previously photographed and angiography performed were subjected to same observations following the methods previously described.
The remaining 26 animals were euthanized as described above 7 days after dosing. The eyes were fixed in the same manner as those, which had been fixed on day 2. […]

[5] = 75 I.U. hyaluronidase, 14 days later varying concentrations of PEG 300
[6] = Groups I-IV OD: 75 I.U. hyaluronidase, 14 days later 50 μl sterile 100%, 75%, 50% or 25% PEG 300, fundus photos, β scans

Polyethylene Glycol 300 [PEG 300]
Electro Retinography Results [1]: Normal
Histological and Electron Microscopic Results [1]: Normal
Retinal Detachment at 48 hours Post 2nd Injection [1]: All
Retinal Reattachment at 3 weeks Post 2nd Injection [1]: All
safety by indirect ophthalmoscopy, fundus photography, light and electron microscopy and electroretinography [1]: safe and without causing any toxicity
time to induced retinal detachment after second intravitreal injection [2, 5]: ≤ 48 h
time to spontaneous retinal re-attachment after the PEG injection [2, 5]: ≤ 3 weeks
Retinal Detachment At 48 hours Post 2nd Injection [2, 6]: All
Retinal Reattachment At 3 weeks Post 2nd Injection [2, 6]: All
Histological and Electron Microscopic Results ([2]; Groups I-IV OD: 100%, 75%, 50% or 25% PEG 300, 3 enucleated eyes): No Adverse
Electro Retinography Results ([2]; Groups I-IV OD: 100%, 75%, 50% or 25% PEG 300, after retinal detachment and spontaneous re-attachment 3 weeks later): No Adverse
safety / toxicity of intravitreal injection ([2]; hyaluronidase followed by PEG 300 at 100%, 75%, 50% and 25% in saline vehicle): safe and without causing any toxicity
thickness of the outer nuclear layer after retinal detachment surgery [3]: Thinning of the outer nuclear layer is observed

Polyethylene Glycol 400 [PEG 400]
Electro Retinography Results [1]: Normal
Histological and Electron Microscopic Results [1]: Normal
Retinal Detachment at 48 hours Post 2nd Injection [1]: All
Retinal Reattachment at 3 weeks Post 2nd Injection [1]: All
safety by indirect ophthalmoscopy, fundus photography, light and electron microscopy and electroretinography [1]: safe and without causing any toxicity

C[CH2][Hg][S]c1ccccc1C(=O)[O-].[Na+] [thimerosal]
treatment-related toxicities, eyes examined grossly and microscopically ([4]; Group 2, BSS+thimerosal 0.0075 mg, day 2): free of toxicity
treatment-related toxicities, eyes examined grossly and microscopically ([4]; Group 2, BSS+thimerosal 0.0075 mg, day 7): breakdown of the blood retinal barrier
treatment-related toxicities, eyes examined grossly and microscopically ([4]; Group 3, BSS+thimerosal 0.025 mg, day 2 and 7 post dose): severe treatment-related toxic effects
